Assay results reported in paper PMC6934184, “Selective DNA-PKcs inhibition extends the therapeutic index of localized radiotherapy and chemotherapy” (The Journal of Clinical Investigation, 2019).

Biological target: T1, FRAP1 (mTOR) (Homo sapiens, UniProt P42345)
T1 construct: purchased Thermo Fisher Scientific (Life Technologies) SelectScreen
Experiment: SelectScreen Z'LYTE
Format: biochemical
Method in brief: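 NU5455 was profiled across the SelectScreen Broad panel of kinase activity and binding assays. Z'LYTE reactions such as CSF1R ran at apparent Km ATP, while the Adapta CAMK1 assay used ATP listed as 10. Values are given as percent.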

CN(C(=O)CN1CCOCC1)c1ccc2sc3c(-c4cccc5c(=O)cc(N6CC7CCC(C6)O7)oc45)cccc3c2c1 [NU5455]
inhibition at 1 µM: 5.7%
